Test results taken from patent publication US4281121A, “1,3,4-Thiadiazole-2-carboxylic acid derivatives, process for making the same and fungicidal and nematocidal compositions containing same” (Schering Aktiengesellschaft, priority 1978, dated 1981).
Like-named read-outs stand apart in the source and are kept apart here.

How the values were obtained:
Botrytis cinerea [1] = experiment: Inhibition of fungus in a nutrient solution: Botrytis cinerea; assay type: cell-based; conditions: 6 days at 21-23° C.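 Further: 0 means no fungus growth and higher grades mean more surface covered.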
Fusarium avenaceum [2] = experiment: Threshold concentration test in case of Fusarium avenaceum (infested soil, garden peas); assay type: in vivo; conditions: for number of sound peas: 20 grains per dish, 18 days at 20-24° C.; for root evaluation (1-4): 18 days
Procedure, shortened: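 Soil heavily infested with Fusarium avenaceum was mixed uniformly with a 20% powder formulation of active agent, then sown immediately with 20 garden pea seeds ('Wunder von Kelvedon') per dish. After 18 days in a greenhouse at 20° to 24° C., sound plants were counted and roots scored on a 1–4 scale.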

Alternaria solani = experiment: Inhibition of fungus in a nutrient solution: Alternaria solani; assay type: cell-based; conditions: 6 days at 21-23° C.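 Further: 0 means no fungus growth and higher grades mean more surface covered.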
Fusarium avenaceum [3] = experiment: Inhibition of fungus in a nutrient solution: Fusarium avenaceum; assay type: cell-based; conditions: 6 days at 21-23° C.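 Further: 0 means no fungus growth and higher grades mean more surface covered.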
Procedure, shortened: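 Grape juice/water (1:1) nutrient solution mixed with powdered test agent, then inoculated with conidia. Surface fungal growth scored on a 0–5 scale after 6 days at 21–23 °C.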

Penicillium digitatum = experiment: Inhibition of fungus in a nutrient solution: Penicillium digitatum; assay type: cell-based; conditions: 6 days at 21-23° C.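 Further: 0 means no fungus growth and higher grades mean more surface covered.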
[4] = system: root gall nematodes (Meloidogyne sp.); experiment: Threshold concentration test with root gall nematodes (cucumber, infested soil); assay type: in vivo; conditions: 28 days at 24-27° C.
Description: Threshold concentration test with root gall nematodes (Meloidogyne sp.)
20% concentration pulverulent active agents as listed in the table below were mixed in a uniform manner with a soil which had been heavily infested by root gall nematodes. After waiting for 3 days the treated soil was placed in two clay dishes of a capacity of 0.5 liter. 10 grain of cucumber seeds of the type "Guntruud" were placed into each dish.
Thereafter, the contents of the dishes were permitted to develop at a temperature of 24° to 27° C. for a time of 28 days in a hothouse. The cucumber roots were then washed out and were examined in a water bath regarding nematode infestation. The reduction of the infestation by the active agents as compared with untreated control material was determined in percentages.
The nematocidal activity was calculated by the formula
A=the infestation in the untreated control material and
B=the infestation after treatment.

Pythium ultimum = experiment: Threshold concentration test for use of the compounds against Pythium ultimum (infested soil, garden peas); assay type: in vivo; design: key to root evaluation (1-4): 4: white roots without fungous necrosis; 3: white roots, minor fungous necrosis; 2: brown roots, already more pronounced fungous necrosis; 1: heavy fungous necrosis, roots rotted; conditions: for root evaluation (1-4): 3 weeks; for number of sound peas: 20 grains per dish, 3 weeks at 20-24° C.
Procedure, shortened: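 Pulverulent agents at 20% concentration mixed evenly into soil heavily infested with Pythium ultimum, then garden peas ('Wunder von Kelvedon', 20 per dish) sown at once. After three weeks at 20–24 °C in a hothouse, sound peas counted and roots scored on a 1–4 scale.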

Piricularia oryzae = assay type: in vivo; conditions: 5 days
[5] = system: Helminthosporium gramineum; experiment: Seed treatment in open field tests for infestation by Helminthosporium gramineum (barley); assay type: in vivo
Experimental: Seed treatment in open field tests for infestation by Helminthosporium gramineum
The active agents were used in the form of pulverulent compositions. After about 8 months in case of winter barley and after about 3 months in case of summer barley the infested plants were counted and the activity was calculated by the formula [formula]

Ustilago avenae = experiment: Oat seed treatment for Ustilago avenae; assay type: in vivo; conditions: 10 weeks
Fusarium nivale = experiment: Treatment of rye seeds against Fusarium nivale; assay type: in vivo; conditions: 100 g/100 kg; about 4 weeks
Experimental: Treatment of rye seeds against Fusarium nivale
Rye seeds with a natural infestation by Fusarium nivale were seeded in earth filled pots and left for germination at about 6° C. Part of the seeds was treated before seeding with the active agents as appears from the subsequent table and part was untreated. After emergence of the seedlings the plants were illuminated with artificial light for 12 hours each day. After about 4 weeks the degree of infestation was determined in percentages. The fungicidal activity was calculated on the basis of the following formula: [formula]
The active agents were used in the form of 20% concentration compositions.

Tilletia caries [6] = experiment: Seed treatment in open field tests regarding infestation by Tilletia caries (oats); assay type: in vivo
Septoria nodorum = experiment: Treatment of oat seeds against Septoria nodorum; assay type: in vivo; conditions: 4 weeks
Experimental: Effects of the treatment of oat seeds against Septoria nodorum
They were then seeded on a moist substrate for germination. As a control untreated seeds were likewise seeded. At about 6° C. the seed was incubated in an air-conditioned chamber until after 4 weeks the proportion of diseased seeds could be determined and the activity of the fungicidal compounds was calculated on the basis of the following formula: [formula]
The active agents were applied in the form of 20% concentration pulverulent compositions.

Venturia inaequalis = experiment: Prophylactic leaf treatment of apples in open field test against Venturia inaequalis; assay type: in vivo; conditions: 3 weeks
Botrytis cinerea [7] = experiment: Prophylactic leaf treatment of tomato plants against Botrytis cinerea; assay type: in vivo; conditions: concentration of 0.025 of the active agent (unit not given)
Tilletia caries [8] = experiment: Treatment of oat seeds infested with Tilletia caries (spore germination); assay type: in vivo
[9] = concentration of active agent 0.1 (percentages)
[10] = 20 g active agent per 100 kg, about 5 weeks
[11] = 50 g active agent per 100 kg, about 5 weeks
[12] = summer barley, 25 g active agent/100 kg barley, about 3 months
[13] = summer barley, 50 g active agent/100 kg barley, about 3 months
[14] = summer barley, 100 g active agent/100 kg barley, about 3 months
[15] = winter barley, 25 g active agent/100 kg barley, about 8 months
[16] = winter barley, 50 g active agent/100 kg barley, about 8 months
[17] = winter barley, 75 g active agent/100 kg barley, about 8 months

Q: Which results are given for `CS(=O)(=O)c1nnc(C#N)s1` [5-methylsulfonyl-1,3,4-thiadiazole-2-carbonitrile]?
A: fungus development on the surface of the nutrient solution (0-5) (Botrytis cinerea [1]; 0.002%): 1; fungus development on the surface of the nutrient solution (0-5) (Botrytis cinerea [1]; 0.004%): 0; number of sound peas (Fusarium avenaceum [2]; 25 mg/l soil): 18; root evaluation (1-4) (Fusarium avenaceum [2]; 25 mg/l soil): 4; number of sound peas (Fusarium avenaceum [2]; 50 mg/l soil): 17; root evaluation (1-4) (Fusarium avenaceum [2]; 50 mg/l soil): 4; number of sound peas (Fusarium avenaceum [2]; 100 mg/l soil): 19; root evaluation (1-4) (Fusarium avenaceum [2]; 100 mg/l soil): 4; fungus development on the surface of the nutrient solution (0-5) (Alternaria solani; 0.002%): 0; fungus development on the surface of the nutrient solution (0-5) (Alternaria solani; 0.004%): 0; fungus development on the surface of the nutrient solution (0-5) (Fusarium avenaceum [3]; 0.002%): 0; fungus development on the surface of the nutrient solution (0-5) (Fusarium avenaceum [3]; 0.004%): 0; fungus development on the surface of the nutrient solution (0-5) (Penicillium digitatum; 0.002%): 1; fungus development on the surface of the nutrient solution (0-5) (Penicillium digitatum; 0.004%): 0; Percentage reduction of infestation ([4]; 50 mg per liter soil): 71%; Percentage reduction of infestation ([4]; 100 mg per liter soil): 88%; Percentage reduction of infestation ([4]; 200 mg per liter soil): 96%; root evaluation (1-4) (Pythium ultimum; 20 mg/l soil): 3; number of sound peas (Pythium ultimum; 20 mg/l soil): 17; root evaluation (1-4) (Pythium ultimum; 40 mg/l soil): 4; number of sound peas (Pythium ultimum; 40 mg/l soil): 16; root evaluation (1-4) (Pythium ultimum; 80 mg/l soil): 4; number of sound peas (Pythium ultimum; 80 mg/l soil): 20

Q: With `CS(=O)(=O)c1nnc(C(N)=O)s1` [5-methylsulfonyl-1,3,4-thiadiazole-2-carboxamide] as the molecule, how does the “% activity” value (Piricularia oryzae; [9]) read?
A: 96%

Q: What about the “% activity” value (Helminthosporium gram; 10 g active agent per 100 kg, about 5 weeks) of the same molecule?
A: 95%

Q: And the “% activity” value (Helminthosporium gram; [10])?
A: 100%

Q: And the “% activity” value (Helminthosporium gram; [11])?
A: 100%

Q: And the “% activity” value [5, 12]?
A: 95%

Q: What about the “% activity” value [5, 13] of the same molecule?
A: 100%

Q: And the “% activity” value [5, 14]?
A: 100%

Q: What about the “% activity” value [5, 15] of the same molecule?
A: 90%

Q: What about the “% activity” value [5, 16] of the same molecule?
A: 96%

Q: What about the “% activity” value [5, 17] of the same molecule?
A: 100%

Q: And the “% activity” value ([5]; winter barley, 100 g active agent/100 kg barley, about 8 months)?
A: 100%

Q: What about the “% activity” value (Ustilago avenae; 100 g active agent/100 kg) of the same molecule?
A: 84%

Q: What about the “% activity” value (Ustilago avenae; 150 g active agent/100 kg) of the same molecule?
A: 90%

Q: And the “% activity” value (Fusarium nivale)?
A: 99%

Q: And the “% activity” value (Tilletia caries [6]; winter oats, 25 g active agent/100 kg, about 9 months)?
A: 100%

Q: What about the “% activity” value (Tilletia caries [6]; winter oats, 50 g active agent/100 kg, about 9 months) of the same molecule?
A: 100%

Q: What about the “% activity” value (Tilletia caries [6]; winter oats, 100 g active agent/100 kg, about 9 months) of the same molecule?
A: 100%

Q: And the “% activity” value (Septoria nodorum; 50 g active agent/100 kg seeds)?
A: 91%

Q: And the “root evaluation (1-4)” value (Pythium ultimum; 20 mg/l soil)?
A: 4

Q: What about the “number of sound peas” value (Pythium ultimum; 20 mg/l soil) of the same molecule?
A: 16

Q: What about the “root evaluation (1-4)” value (Pythium ultimum; 40 mg/l soil) of the same molecule?
A: 4

Q: And the “number of sound peas” value (Pythium ultimum; 40 mg/l soil)?
A: 18

Q: And the “root evaluation (1-4)” value (Pythium ultimum; 80 mg/l soil)?
A: 4

Q: What about the “number of sound peas” value (Pythium ultimum; 80 mg/l soil) of the same molecule?
A: 20

Q: What does the source list for `CNC(=O)c1nnc(S(C)(=O)=O)s1` [5-methylsulfonyl-1,3,4-thiadiazole-2-carboxylic acid methylamide]?
A: % activity (Piricularia oryzae; concentration of active agent 0.02 (percentages)): 65%; % activity (Piricularia oryzae; [9]): 91%; % activity (Helminthosporium gram; [10]): 99%; % activity (Helminthosporium gram; [11]): 100%; % activity [5, 12]: 93%; % activity [5, 13]: 100%; % activity [5, 14]: 100%; % activity [5, 15]: 99.5%; % activity [5, 16]: 99.5%; % activity [5, 17]: 100%; % activity (Venturia inaequalis; concentration of active agent 0.005 (in gram)): 90%; % activity (Venturia inaequalis; concentration of active agent 0.025 (in gram)): 92%; % activity (Botrytis cinerea [7]): 78%; % activity (Ustilago avenae; 100 g active agent/100 kg): 90%; % activity (Fusarium nivale): 100%; % activity (Tilletia caries [6]; summer oats, 50 g active agent/100 kg, about 4 months): 100%; % activity (Septoria nodorum; 50 g active agent/100 kg seeds): 93%; root evaluation (1-4) (Pythium ultimum; 20 mg/l soil): 4; number of sound peas (Pythium ultimum; 20 mg/l soil): 20; root evaluation (1-4) (Pythium ultimum; 40 mg/l soil): 4; number of sound peas (Pythium ultimum; 40 mg/l soil): 18; root evaluation (1-4) (Pythium ultimum; 80 mg/l soil): 4; number of sound peas (Pythium ultimum; 80 mg/l soil): 18

Q: Which results are given for “Methoxyethyl-Hg--silicate [reference compound]”?
A: % activity (Helminthosporium gram; 0.2 g active agent per 100 kg): 63%; % activity (Helminthosporium gram; 0.5 g active agent per 100 kg): 91%; % activity (Helminthosporium gram; 1.0 g active agent per 100 kg): 98%; % activity ([5]; summer barley, 5.2 g active agent/100 kg barley): 99.8%; % activity ([5]; summer barley, 10.4 g active agent/100 kg barley): 100%; % activity ([5]; winter barley, 2.6 g active agent/100 kg barley): 99.4%; % activity ([5]; winter barley, 5.2 g active agent/100 kg barley): 100%; % activity (Tilletia caries [8]; 1.3 g active agent per 100 kg): 90%; % activity (Tilletia caries [8]; 2.6 g active agent per 100 kg): 100%; % activity (Ustilago avenae; 16 g active agent/100 kg): 66%; % activity (Tilletia caries [6]; summer oats, 2.6 g active agent/100 kg, about 4 months): 99%; % activity (Tilletia caries [6]; winter oats, 5.3 g active agent/100 kg, about 9 months): 99%; % activity (Septoria nodorum; 1.3 g active agent/100 kg seeds): 86%
